Test system: NK cells
Test: Production of cytokines, growth factors and chemokines by NK cells treated with bacterial strains (Bio-Plex 27-plex)
Assay type: cell-based, human
Design: unit not given here
Protocol: Different strains of probiotic bacteria were tested for their ability to induce IFN-g as well as a number of important cytokines, chemokines and growth factors (Table 1). To assess the levels of each strain used in the combination we used an activation index established in the lab for the NK cells which consisted of the use of a specific ratio of several important cytokines and chemokines that prevented auto-immunity while enhancing significant activation of NK cells under pathologic conditions. Therefore, the strains were selected to: 1) provide regulated activation of NK cells when no activation of NK cells is desired; 2) when activated by cytokines and/or cross-linking of the important receptors which occurs during functional activation of NK cells in cancer is to induce maximal activation of NK cells; and 3) provide diversity for gut microflora. These criteria allow us to use bacteria to regulate the gut mucosal immunity in such a way that we will only increase NK activation when needed during infections or malignancies. In other words when there is no need for function of NK cells bacteria will regulate NK function to not induce inflammation; however, during need which occurs under the pathological conditions NK cells are triggered to function at the maximal levels. Such coordinated regulation of NK cell function should be effective in halting unwanted inflammation while providing effective and maximal immunity during disease.
Written informed consents, approved by UCLA Institutional Review Board (IRB), were obtained from healthy blood donors, and all procedures were approved by the UCLA-IRB. Peripheral blood was separated using Ficoll-Hypaque centrifugation, after which the white, cloudy layer, containing peripheral blood mononuclear cells (PBMC), was harvested, washed and re-suspended in RPMI 1640 (Invitrogen by Life Technologies, CA) supplemented with 10% FBS and plated on plastic tissue culture dishes. After 1-2 hours of incubation, non-adherent, human peripheral blood lymphocytes (PBL) were collected. NK cells were negatively selected and isolated from PBLs using the EasySep® Human NK cell enrichment kit purchased from Stem Cell Technologies (Vancouver, BC, Canada). Isolated NK cells were stained with anti-CD16 antibody, to measure NK cell purity using flow cytometric analysis. The isolated NK cell population was greater than 90% purity. Purified NK cells were cultured in RPMI Medium 1640 supplemented with 10% FBS (Gemini Bio-Products, CA), 1% antibiotic antimycotic, 1% sodium pyruvate, and 1% MEM non-essential amino acids (Invitrogen, Life Technologies, CA).
Purified NK cells from healthy donors were left untreated or treated with IL-2 (1000 units/ml) or the combination of anti-CD16 mAb (3 μg/ml) and IL-2 (1000 units/ml) in the presence or absence of bacterial strains at 1:5 ratio (NK cell: bacteria) for 12-18 hours. Afterwards, the levels of cytokines, growth factors and chemokines were determined using Bio-Plex Pro Human Cytokine 27-plex Assay Kit.

[1] = Treatment NK (no activation), bacteria 1:5 NK cell:bacteria, 12-18 hours
[2] = Treatment NK + IL-2 (1000 units/ml), bacteria 1:5, 12-18 hours
[3] = Treatment NK + IL-2 + anti-CD16 mAb (3 μg/ml), bacteria 1:5, 12-18 hours

Lactobacillus acidophilus [L. acidophilus]
Eotaxin [1]: 16
G-CSF [1]: 141
GM-CSF [1]: 110
IFN-γ [1]: 366
IL-1B [1]: 819
IL-1ra [1]: 181
IL-6 [1]: 10357
IL-8 [1]: 6879
IL-10 [1]: 62
IL-12p70 [1]: 299
IL-13 [1]: 5
IL-17 [1]: 63
IP-10 [1]: 77
MCP-1 [1]: 400
RANTES [1]: 2553
TNF-α [1]: 6858
Eotaxin [2]: 21
G-CSF [2]: 89
GM-CSF [2]: 127
IFN-γ [2]: 1329
IL-1B [2]: 335
IL-1ra [2]: 487
IL-6 [2]: 2095
IL-8 [2]: 1116
IL-10 [2]: 17
IL-12p70 [2]: 136
IL-13 [2]: 8
IL-17 [2]: 63
IP-10 [2]: 51
MCP-1 [2]: 112
RANTES [2]: 2353
TNF-α [2]: 1151
Eotaxin [3]: 31
G-CSF [3]: 102
GM-CSF [3]: 199
IFN-γ [3]: 2715
IL-1B [3]: 654
IL-1ra [3]: 493
IL-6 [3]: 3684
IL-8 [3]: 2004
IL-10 [3]: 24
IL-12p70 [3]: 155
IL-13 [3]: 23
IL-17 [3]: 73
IP-10 [3]: 69
MCP-1 [3]: 289
RANTES [3]: 3999
TNF-α [3]: 5663

Lactobacillus bulgaricus [L. bulgaricus]
Eotaxin [1]: 7
G-CSF [1]: 77
GM-CSF [1]: 121
IFN-γ [1]: 144
IL-1B [1]: 293
IL-1ra [1]: 112
IL-6 [1]: 2518
IL-8 [1]: 4501
IL-10 [1]: 22
IL-12p70 [1]: 25
IL-13 [1]: 9
IL-17 [1]: 49
IP-10 [1]: 88
MCP-1 [1]: 609
RANTES [1]: 3804
TNF-α [1]: 868
Eotaxin [2]: 15
G-CSF [2]: 69
GM-CSF [2]: 120
IFN-γ [2]: 381
IL-1B [2]: 123
IL-1ra [2]: 449
IL-6 [2]: 837
IL-8 [2]: 1997
IL-10 [2]: 12
IL-12p70 [2]: 21
IL-13 [2]: 10
IL-17 [2]: 55
IP-10 [2]: 78
MCP-1 [2]: 313
RANTES [2]: 4737
TNF-α [2]: 439
Eotaxin [3]: 6
G-CSF [3]: 59
GM-CSF [3]: 136
IFN-γ [3]: 306
IL-1B [3]: 141
IL-1ra [3]: 383
IL-6 [3]: 685
IL-8 [3]: 1819
IL-10 [3]: 9
IL-12p70 [3]: 5
IL-13 [3]: 8
IL-17 [3]: 50
IP-10 [3]: 72
MCP-1 [3]: 305
RANTES [3]: 4062
TNF-α [3]: 1064

Lactobacillus paracasei [L. paracasei]
Eotaxin [1]: 4
G-CSF [1]: 106
GM-CSF [1]: 99
IFN-γ [1]: 186
IL-1B [1]: 320
IL-1ra [1]: 129
IL-6 [1]: 3029
IL-8 [1]: 3716
IL-10 [1]: 70
IL-12p70 [1]: 70
IL-13 [1]: 8
IL-17 [1]: 40
IP-10 [1]: 53
MCP-1 [1]: 506
RANTES [1]: 1069
TNF-α [1]: 3809
Eotaxin [2]: 27
G-CSF [2]: 138
GM-CSF [2]: 157
IFN-γ [2]: 2112
IL-1B [2]: 523
IL-1ra [2]: 551
IL-6 [2]: 7285
IL-8 [2]: 3983
IL-10 [2]: 47
IL-12p70 [2]: 125
IL-13 [2]: 15
IL-17 [2]: 63
IP-10 [2]: 90
MCP-1 [2]: 337
RANTES [2]: 6468
TNF-α [2]: 6776
Eotaxin [3]: 40
G-CSF [3]: 153
GM-CSF [3]: 215
IFN-γ [3]: 2145
IL-1B [3]: 721
IL-1ra [3]: 573
IL-6 [3]: 6867
IL-8 [3]: 6385
IL-10 [3]: 43
IL-12p70 [3]: 123
IL-13 [3]: 27
IL-17 [3]: 90
IP-10 [3]: 92
MCP-1 [3]: 427
RANTES [3]: >22609
TNF-α [3]: 10128

From patent publication US12156893B2, “Oral composition comprising lactic acid bacteria for regulating immune responses and methods related thereto” (The Regents of the University of California, priority 2016, dated 2024)
